The first assay deals with T1, human full-length MKNK1 (Homo sapiens (Human), UniProt Q9BUB5, T344D). Briefly: MKNK1 kinase assay (TR-FRET). As to conditions: ATP 10 μM final; 15 min preincubation with enzyme. The class given is biochemical. The method, then: MKNK1-inhibitory activity of compounds of the present invention was quantified employing the MKNK1 TR-FRET assay as described in the following paragraphs.
T1 sequence (Q9BUB5 other isoform, or with tags, fused parts or gaps T344D): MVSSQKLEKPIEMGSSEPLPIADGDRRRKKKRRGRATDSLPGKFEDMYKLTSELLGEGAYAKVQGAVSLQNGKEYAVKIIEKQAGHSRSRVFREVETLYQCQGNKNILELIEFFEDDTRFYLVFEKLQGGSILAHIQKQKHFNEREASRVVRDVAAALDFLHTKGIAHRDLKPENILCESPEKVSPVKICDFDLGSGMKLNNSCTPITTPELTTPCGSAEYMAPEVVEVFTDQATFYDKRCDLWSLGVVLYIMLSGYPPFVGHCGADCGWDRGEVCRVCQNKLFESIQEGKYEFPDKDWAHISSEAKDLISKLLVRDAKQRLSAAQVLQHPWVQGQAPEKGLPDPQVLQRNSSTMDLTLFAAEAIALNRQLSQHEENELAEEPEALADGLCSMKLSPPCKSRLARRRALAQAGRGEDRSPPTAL
As substrate for the kinase reaction the biotinylated peptide biotin-Ahx-[…] (C-terminus in amide form) was used which can be purchased e.g. form the company Biosyntan (Berlin-Buch, Germany).
(§1) For the assay 50 nL of a 100 fold concentrated solution of the test compound in DMSO was pipetted into a black low volume 384 well microtiter plate (Greiner Bio-One, Frickenhausen, Germany), 2 μL of a solution of MKNK1 in aqueous assay buffer [50 mM HEPES pH 7.5, 5 mM magnesium chloride, 1.0 mM dithiothreitol, 0.005% (v/v) Nonidet-P40 (Sigma)] was added and the mixture was incubated for 15 min at 22° C. to allow pre-binding of the test compounds to the enzyme before the start of the kinase reaction. Then the kinase reaction was started by the addition of 3 μL of a solution of adenosine-tri-phosphate (ATP, 16.7 μM=>final conc. in the 5 μL assay volume is 10 μM) and substrate (0.1 μM=>final conc. in the 5 μL assay volume is 0.06 μM) in assay buffer and the resulting mixture was incubated for a reaction time of 45 min at 22° C. The concentration of MKNK1 was adjusted depending of the activity of the enzyme lot and was chosen appropriate to have the assay in the linear range, typical concentrations were in the range of 0.05 μg/mL. The reaction was stopped by the addition of 5 μL of a solution of TR-FRET detection reagents (5 nM streptavidine-XL665 [Cisbio Bioassays, Codolet, France] and 1 nM anti-ribosomal protein S6 (pSer236)-antibody from Invitrogen [#44921G] and 1 nM LANCE EU-W1024 labeled ProteinG [Perkin-Elmer, product no. AD0071]) in an aqueous EDTA-solution (100 mM EDTA, 0.1% (w/v) bovine serum albumin in 50 mM HEPES pH 7.5).
(§2) The resulting mixture was incubated for 1 h at 22° C. to allow the formation of complex between the phosphorylated biotinylated peptide and the detection reagents. Subsequently the amount of phosphorylated substrate was evaluated by measurement of the resonance energy transfer from the Eu-chelate to the streptavidine-XL. Therefore, the fluorescence emissions at 620 nm and 665 nm after excitation at 350 nm were measured in a TR-FRET reader, e.g. a Rubystar (BMG Labtechnologies, Offenburg, Germany) or a Viewlux (Perkin-Elmer). The ratio of the emissions at 665 nm and at 622 nm was taken as the measure for the amount of phosphorylated substrate.
On to `OC[C@@H]1CCCN1c1ccc2ncc(-c3cc4ccccc4o3)n2n1` [Example 1, {(2S)-1-[3-(1-Benzofuran-2-yl)imidazo[1,2-b]pyridazin-6-yl]pyrrolidin-2-yl}methanol], for which half-maximal inhibition (IC50) was put at 19 nM.
The same measure, in the same setting: to `OC[C@H]1CCCN1c1ccc2ncc(-c3cc4ccccc4o3)n2n1` [Example 2, {(2R)-1-[3-(1-Benzofuran-2-yl)imidazo-[1,2-b]-pyridazin-6-yl]pyrrolidin-2-yl}-methanol] belongs 42 nM.
The same measure, in the same setting: to `OC1CCN(c2ccc3ncc(-c4cc5ccccc5o4)n3n2)C1` (stereo not drawn) [Example 3, 1-[3-(1-Benzofuran-2-yl)imidazo[1,2-b]pyridazin-6-yl]pyrrolidin-3-ol] belongs 17 nM; to `O[C@@H]1CCCN(c2ccc3ncc(-c4cc5ccccc5o4)n3n2)C1` [Example 4, (3R)-1-[3-(1-Benzofuran-2-yl)imidazo[1,2-b]pyridazin-6-yl]piperidin-3-ol], 44 nM.
On the same count and under the same terms, with `OCC1CCCN(c2ccc3ncc(-c4cc5ccccc5o4)n3n2)C1` (stereo not drawn) [Example 5, {1-[3-(1-Benzofuran-2-yl)imidazo[1,2-b]pyridazin-6-yl]piperidin-3-yl}methanol] the figure was 37 nM; with `OC1CN(c2ccc3ncc(-c4cc5ccccc5o4)n3n2)C1` [Example 6, 1-[3-(1-Benzofuran-2-yl)imidazo[1,2-b]pyridazin-6-yl]azetidin-3-ol], 33 nM.
Turning to `OC[C@@H]1CCN(c2ccc3ncc(-c4cc5ccccc5o4)n3n2)C1` [Example 7, {(3R)-1-[3-(1-Benzofuran-2-yl)imidazo[1,2-b]pyridazin-6-yl]pyrrolidin-3-yl}methanol], the IC50 came to 14 nM. Compared with the last molecule, the IC50 is about 2.4-fold lower.
Same read-out and setting: with `O[C@H]1CCN(c2ccc3ncc(-c4cc5ccccc5o4)n3n2)C1` [Example 8, (3S)-1-[3-(1-Benzofuran-2-yl)imidazo[1,2-b]pyridazin-6-yl]pyrrolidin-3-ol] the figure was 19 nM; with `O[C@@H]1CCN(c2ccc3ncc(-c4cc5ccccc5o4)n3n2)C1` [Example 9, (3R)-1-[3-(1-Benzofuran-2-yl)imidazo[1,2-b]pyridazin-6-yl]pyrrolidin-3-ol], 15 nM; with `OC[C@H]1CCN(c2ccc3ncc(-c4cc5ccccc5o4)n3n2)C1` [Example 10, {(3S)-1-[3-(1-Benzofuran-2-yl)imidazo[1,2-b]pyridazin-6-yl]pyrrolidin-3-yl}methanol], 20 nM.

The next assay addresses T1, human full-length MKNK1. Briefly: MKNK1 kinase high ATP assay (TR-FRET). The class given is biochemical. As to conditions: ATP 2 mM final; 15 min preincubation with enzyme. The method, then:
MKNK1 Kinase High ATP Assay
MKNK1-inhibitory activity at high ATP of compounds of the present invention after their preincubation with MKNK1 was quantified employing the TR-FRET-based MKNK1 high ATP assay as described in the following paragraphs.
As substrate for the kinase reaction the biotinylated peptide biotin-Ahx-[…] (C-terminus in amide form) was used, which can be purchased e.g. from the company Biosyntan (Berlin-Buch, Germany).
as §1, with “3.3 mM=>final” for “16.7 μM=>final”, “2 mM)” for “10 μM)”, “30” for “45”, “0.003” for “0.05”
as §2
`OC[C@@H]1CCCN1c1ccc2ncc(-c3cc4ccccc4o3)n2n1` [Example 1, {(2S)-1-[3-(1-Benzofuran-2-yl)imidazo[1,2-b]pyridazin-6-yl]pyrrolidin-2-yl}methanol] showed an IC50 of 7 nM.
Still for that read-out and setting: to `OC[C@H]1CCCN1c1ccc2ncc(-c3cc4ccccc4o3)n2n1` [Example 2, {(2R)-1-[3-(1-Benzofuran-2-yl)imidazo-[1,2-b]-pyridazin-6-yl]pyrrolidin-2-yl}-methanol] belongs 22 nM.
As for `OC1CCN(c2ccc3ncc(-c4cc5ccccc5o4)n3n2)C1` (stereo not drawn) [Example 3, 1-[3-(1-Benzofuran-2-yl)imidazo[1,2-b]pyridazin-6-yl]pyrrolidin-3-ol], inhibition was half-maximal at 6 nM (IC50).
Regarding `O[C@@H]1CCCN(c2ccc3ncc(-c4cc5ccccc5o4)n3n2)C1` [Example 4, (3R)-1-[3-(1-Benzofuran-2-yl)imidazo[1,2-b]pyridazin-6-yl]piperidin-3-ol], the IC50 is 15 nM. This IC50 lies about 2.5-fold higher than the previous one.
On the same count and under the same terms, to `OCC1CCCN(c2ccc3ncc(-c4cc5ccccc5o4)n3n2)C1` (stereo not drawn) [Example 5, {1-[3-(1-Benzofuran-2-yl)imidazo[1,2-b]pyridazin-6-yl]piperidin-3-yl}methanol] belongs 13 nM; to `OC1CN(c2ccc3ncc(-c4cc5ccccc5o4)n3n2)C1` [Example 6, 1-[3-(1-Benzofuran-2-yl)imidazo[1,2-b]pyridazin-6-yl]azetidin-3-ol], 12 nM.
`OC[C@@H]1CCN(c2ccc3ncc(-c4cc5ccccc5o4)n3n2)C1` [Example 7, {(3R)-1-[3-(1-Benzofuran-2-yl)imidazo[1,2-b]pyridazin-6-yl]pyrrolidin-3-yl}methanol] registered an IC50 of 4 nM.
On the same count and under the same terms, with `O[C@H]1CCN(c2ccc3ncc(-c4cc5ccccc5o4)n3n2)C1` [Example 8, (3S)-1-[3-(1-Benzofuran-2-yl)imidazo[1,2-b]pyridazin-6-yl]pyrrolidin-3-ol] the figure was 15 nM.

The values above are taken from patent US9284319B2, “Heterocyclyl aminoimidazopyridazines” (BAYER INTELLECTUAL PROPERTY GMBH, priority 2011, dated 2016).
